Test results from patent publication US20210238162A1, “CHEMICAL COMPOUNDS” (GlaxoSmithKline Intellectual Property Development Limited, priority 2015, published 2021).

The compounds below were run against T1, haematopoietic prostaglandin D synthase (H-PGDS) (Homo sapiens, UniProt O60760) (assay: H-PGDS RapidFire High Throughput Mass Spectrometry Assay). Conditions: H-PGDS RapidFire MS assay, mean pIC50; read-out: Potency Range (mean pIC50) (converted).
T1 construct: Full length human H-PGDS cDNA (Invitrogen Ultimate ORF IOH13026) was amplified by PCR; made in house; host or cells: E. coli BL21 (DE3*), vector pET22b+
T1 sequence (O60760 whole entry): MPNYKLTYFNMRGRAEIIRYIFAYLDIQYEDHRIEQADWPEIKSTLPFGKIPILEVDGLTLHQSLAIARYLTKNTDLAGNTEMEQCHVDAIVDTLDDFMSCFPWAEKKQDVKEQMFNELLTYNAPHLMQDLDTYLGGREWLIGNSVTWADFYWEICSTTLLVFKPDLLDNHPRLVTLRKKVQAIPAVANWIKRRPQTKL
Type: biochemical
Method: The H-PGDS RapidFire™ mass spectrometric assay monitors conversion of prostaglandin H2 (PGH2) to prostaglandin D2 (PGD2) by haematopoietic prostaglandin D synthase (H-PGDS). In the assay format described here, the substrate (PGH2) is formed in situ by the action of cyclooxygenase-2 on arachidonic acid. This first step is set up to be fast, and generates a burst of PGH2 at ˜10 μM. The PGH2 is then further converted to PGD2 by the H-PGDS enzyme. […] Plates are then read on the RapidFire™ high throughput solid phase extraction system (Agilent) which incorporates a solid phase extraction step coupled to a triple quadrupole mass spectrometer (AB SCIEX). Relative levels of PGD2 and PGF2α, which acts as a surrogate for substrate, are measured and a percent conversion calculated.
Full length human H-PGDS cDNA (Invitrogen Ultimate ORF IOH13026) was amplified by PCR with the addition of a 5′ 6-His tag and TEV protease cleavage site. The PCR product was digested with Ndel and Xhol and ligated into pET22b+ (Merck Novagen®). Expression was carried out in E. coli strain BL21 (DE3*) using auto-induction Overnight Express™ Instant TB medium (Merck Novagen®) supplemented with 1% glycerol. The culture was first grown at 37° C. and the temperature was reduced to 25° C. when OD600 reached 2.0. Cells were harvested by centrifugation after a further 18 hr. 10 g of E. coli cell pellet was suspended to a total volume of 80 mL in lysis buffer (20 mM Tris-Cl pH 7.5, 300 mM NaCl, 20 mM imidazole, 5 mM β-mercaptoethanol, 10% glycerol). 1 mg/mL protease inhibitors (Protease Inhibitor Cocktail Set Ill, Merck Calbiochem®) and 1 mg/mL lysozyme were added to the cell suspension. The suspension was then sonicated for 5 min (UltraSonic Processor VCX 750, Cole-Parmer Instrument Co.) with a micro probe (50% amplitude, 10 sec on/off) and then centrifuged at 100,000 g for 90 min (at 4° C.). The supernatant was loaded onto a Ni-NTA HiTrap column (5 mL, GE Heathcare, pre-equilibrated in lysis buffer). The column was washed with 10 column volumes of lysis buffer and eluted with lysis buffer containing 500 mM imidazole. The pooled protein peak fractions were concentrated using a 10 kDa centrifugal filter at 3500 g and 4° C. (Amicon Ultra-15 centrifugal filter unit with Ultracel-10 membrane from Millipore). Further purification of the concentrated protein was carried out using gel filtration chromatography on a HiLoad 26/600 Superdex 75 preparative grade column (GE Healthcare Life Sciences) using 50 mM Tris pH 7.5, 50 mM NaCl, 1 mM dithiothreitol, 1 mM MgCl2. Fractions containing the protein were pooled, concentrated as described above, and stored at −80° C.
The full length human COX-2 gene (accession number L15326) was amplified by PCR to generate an EcoRI-HindIII fragment containing an in-frame FLAG tag. This was subcloned into pFastBac 1 (Invitrogen). The COX2 FLAG plasmid was recombined into the baculovirus genome according to the BAC-to-BAC protocol described by Invitrogen. Transfection into Spodoptera frugiperda (Sf9) insect cells was performed using Cellfectin (Invitrogen), according to the manufacturer's protocol. […] Recombinant virus was added at a Multiplicity of Infection (MOI) of 5 and the culture was allowed to continue for 3 days. Cells were harvested using a continuous feed centrifuge run at 2500 g at a rate of approximately 2 L/min with cooling. The resultant cell slurry was re-centrifuged in pots (2500 g, 20 min, 4° C.) and the cell paste was stored at −80° C. […] The suspension was sonicated in 500 mL batches for 8×5 seconds at 10 u amplitude with the medium tip of an MSE probe sonicator and subsequently incubated at 4° C. for 90 min with gentle stirring. The lysate was centrifuged at 12000 rpm for 45 min at 4° C. in a Sorvall SLA1500 rotor. The supernatant (1400 mL) was added to 420 mL of 20 mM Tris-Cl pH 7.4, 150 mM NaCl, 0.1 mM EDTA to reduce the concentration of n-octyl-β-D-glucopyranoside to 1% w/v.
C[C@@H](N[C@H]1CC[C@H](NC(=O)c2cnc3cc(OC(F)F)c(Cl)cc3c2)CC1)C(F)F [Example 129, 6-Chloro-7-(difluoromethoxy)-N-(trans-4-(((R)-1,1-difluoropropan-2-yl)amino)cyclohexyl)quinoline-3-carboxamide] was tested, and the IC50 was less than 10 nM. O=C(NC1CCN(CC(F)F)CC1)c1cnc2cc(OC(F)F)c(F)cc2c1 [Example 65, N-(1-(2,2-Difluoroethyl)piperidin-4-yl)-7-(difluoromethoxy)-6-fluoroquinoline-3-carboxamide] showed an IC50 of 10 to 79.4 nM. For O=C(N[C@H]1CCNC1=O)c1cnc2cc(N3CC(F)C3)c(Cl)cc2c1 [Example 169, (S)-6-Chloro-7-(3-fluoroazetidin-1-yl)-N-(2-oxopyrrolidin-3-yl)quinoline-3-carboxamide], the IC50 was less than 10 nM. Compound O=C(N[C@H]1CC[C@H](N2CC(F)(F)C2)CC1)c1cnc2cc(OC(F)F)c(F)cc2c1 [Example 71, N-(trans-4-(3,3-Difluoroazetidin-1-yl)cyclohexyl)-7-(difluoromethoxy)-6-fluoroquinoline-3-carboxamide] has an IC50 of 10 to 79.4 nM. CC(C)(O)[C@H]1CC[C@H](NC(=O)c2cnc3cc(Br)ccc3c2)CC1 [Example 191, 7-Bromo-N-(trans-4-(2-hydroxypropan-2-yl)cyclohexyl)quinoline-3-carboxamide] gave an IC50 of 10 to 79.4 nM. For C[C@@H]1CCN1c1cc2ncc(C(=O)N[C@H]3CC[C@H](C(C)(C)O)CC3)cc2cc1F [Example 175, 6-Fluoro-N-(trans-4-(2-hydroxypropan-2-yl)cyclohexyl)-7-((R)-2-methylazetidin-1-yl)quinoline-3-carboxamide], the IC50 was 100 to 1000 nM. Work on C[C@]1(O)CC[C@H](NC(=O)c2cnc3cc(OC(F)F)c(Cl)cc3c2)C1 (racemic) [Example 146, Racemic 6-Chloro-7-(difluoromethoxy)-N-((1S,3S)-3-hydroxy-3-methylcyclopentyl)quinoline-3-carboxamide] yielded an IC50 of 10 to 79.4 nM. O=C(N[C@H]1CCN(CC2CCCC2)C1=O)c1cnc2cc(OC(F)F)c(F)cc2c1 [Example 78, (S)—N-(1-(Cyclopentylmethyl)-2-oxopyrrolidin-3-yl)-7-(difluoromethoxy)-6-fluoroquinoline-3-carboxamide] gave an IC50 of 10 to 79.4 nM. COc1c(Cl)ccc2cc(C(=O)NC3CCN(c4nnnn4C)CC3)cnc12 [Example 31, 7-Chloro-8-methoxy-N-(1-(1-methyl-1H-tetrazol-5-yl)piperidin-4-yl)quinoline-3-carboxamide] showed an IC50 of 100 to 1000 nM. In the case of C[C@@H]1CNC(=O)[C@H]1NC(=O)c1cnc2cc(N3CC[C@@H]3C)c(Cl)cc2c1 [Example 205, 6-Chloro-N-((3S,4R)-4-methyl-2-oxopyrrolidin-3-yl)-7-((S)-2-methylazetidin-1-yl)quinoline-3-carboxamide], the IC50 is reported as less than 10 nM. O=C(NC1CCN(CC(F)(F)F)CC1)c1cnc2cc(OC(F)F)c(F)cc2c1 [Example 58, 7-(Difluoromethoxy)-6-fluoro-N-(1-(2,2,2-trifluoroethyl)piperidin-4-yl)quinoline-3-carboxamide] was tested, and the IC50 was 10 to 79.4 nM. Compound O=C(N[C@H]1CC[C@H](NCC(F)F)CC1)c1cnc2cc(C3CC3)c(F)cc2c1 [Example 43, 7-Cyclopropyl-N-(trans-4-((2,2-difluoroethyl)amino)cyclohexyl)-6-fluoroquinoline-3-carboxamide] has an IC50 of less than 10 nM. C[C@]1(O)C[C@@H](NC(=O)c2cnc3cc(OC(F)F)c(Br)cc3c2)C1 [Example 157, 6-Bromo-7-(difluoromethoxy)-N-((1s,3s)-3-hydroxy-3-methylcyclobutyl)quinoline-3-carboxamide] was tested, and the IC50 was 10 to 79.4 nM. Cn1nnnc1N1CCC(NC(=O)c2cnc3cc(C4CC4)ccc3c2)CC1 [Example 44, 7-Cyclopropyl-N-(1-(1-methyl-1H-tetrazol-5-yl)piperidin-4-yl)quinoline-3-carboxamide] showed an IC50 of less than 10 nM. In the case of O=C(N[C@H]1CCN(CC2CC2)C1=O)c1cnc2cc(OC(F)F)c(Cl)cc2c1 [Example 120, (S)-6-Chloro-N-(1-(cyclopropylmethyl)-2-oxopyrrolidin-3-yl)-7-(difluoromethoxy)quinoline-3-carboxamide], the IC50 is reported as 10 to 79.4 nM. In the case of C#CCCNC(=O)CO[C@H]1CC[C@H](NC(=O)c2cnc3cc(OC(F)F)c(F)cc3c2)CC1 [Example 103, N-(trans-4-(2-(but-3-yn-1-ylamino)-2-oxoethoxy)cyclohexyl)-7-(difluoromethoxy)-6-fluoroquinoline-3-carboxamide], the IC50 is reported as 10 to 79.4 nM. Work on CN(C)c1ccc2cc(C(=O)N[C@H]3CC[C@H](C(C)(C)O)CC3)cnc2c1 [Example 196, 7-(Dimethylamino)-N-(trans-4-(2-hydroxypropan-2-yl)cyclohexyl)quinoline-3-carboxamide] yielded an IC50 of less than 10 nM. C[C@]1(O)C[C@@H](NC(=O)c2cnc3cc(OC(F)F)c(Cl)cc3c2)C1 [Example 138, 6-Chloro-7-(difluoromethoxy)-N-((1s,3s)-3-hydroxy-3-methylcyclobutyl)quinoline-3-carboxamide] gave an IC50 of 10 to 79.4 nM. O=C(N[C@H]1CCNC1=O)c1cnc2cc(OC(F)F)c(Br)cc2c1 [Example 154, (S)-6-Bromo-7-(difluoromethoxy)-N-(2-oxopyrrolidin-3-yl)quinoline-3-carboxamide] showed an IC50 of less than 10 nM. Work on CC(C)(O)[C@H]1CC[C@H](NC(=O)c2cnc3cc([S+]([O-])C(F)F)c(F)cc3c2)CC1 (stereo partly drawn) [Example 185, 7-((Difluoromethyl)sulfinyl)-6-fluoro-N-(trans-4-(2-hydroxypropan-2-yl)cyclohexyl)quinoline-3-carboxamide] yielded an IC50 of 10 to 79.4 nM. Work on C[C@]1(O)CC[C@@H](NC(=O)c2cnc3cc(OC(F)F)c(Cl)cc3c2)CC1 [Example 147, 6-Chloro-7-(difluoromethoxy)-N-((1s,4s)-4-hydroxy-4-methylcyclohexyl)quinoline-3-carboxamide] yielded an IC50 of 10 to 79.4 nM. With CC(C)(O)[C@H]1CC[C@H](NC(=O)c2cnc3cc(N4CC(F)(F)C4)c(F)cc3c2)CC1 [Example 177, 7-(3,3-Difluoroazetidin-1-yl)-6-fluoro-N-(trans-4-(2-hydroxypropan-2-yl)cyclohexyl)quinoline-3-carboxamide] the IC50 was 10 to 79.4 nM. Compound NC(=O)CO[C@H]1CC[C@H](NC(=O)c2cnc3cc(OC(F)F)c(Cl)cc3c2)CC1 [Example 136, N-(trans-4-(2-Amino-2-oxoethoxy)cyclohexyl)-6-chloro-7-(difluoromethoxy)quinoline-3-carboxamide] has an IC50 of less than 10 nM. CC1CCN1c1cc2ncc(C(=O)N[C@H]3CC[C@H](C(C)(C)O)CC3)cc2cc1F (mixture of isomers) [Example 170, 6-Fluoro-N-(trans-4-(2-hydroxypropan-2-yl)cyclohexyl)-7-(2-methylazetidin-1-yl)quinoline-3-carboxamide] was tested, and the IC50 was 10 to 79.4 nM. C[C@]1(O)C[C@@H](NC(=O)c2cnc3cc(C4CC4)c(Cl)cc3c2)C1 [Example 40, 6-Chloro-7-cyclopropyl-N-((1s,3s)-3-hydroxy-3-methylcyclobutyl)quinoline-3-carboxamide] gave an IC50 of 10 to 79.4 nM. CC(C)(O)[C@H]1CC[C@H](NC(=O)c2cnc3cc(N4CCCC4)c(F)cc3c2)CC1 [Example 163, 6-Fluoro-N-(trans-4-(2-hydroxypropan-2-yl)cyclohexyl)-7-(pyrrolidin-1-yl)quinoline-3-carboxamide] showed an IC50 of 100 to 1000 nM.

Same assay, conditions: in at least one experimental run; read-out: H-PGDS pIC50 value (converted)
For C[C@]1(O)C[C@@H](NC(=O)c2cnc3cc(OC(F)F)c(Cl)cc3c2)C1 [Example 138, 6-Chloro-7-(difluoromethoxy)-N-((1s,3s)-3-hydroxy-3-methylcyclobutyl)quinoline-3-carboxamide], the IC50 was 20 nM. With CC(C)(O)[C@H]1CC[C@H](NC(=O)c2cnc3cc(N4CC(F)(F)C4)c(F)cc3c2)CC1 [Example 177, 7-(3,3-Difluoroazetidin-1-yl)-6-fluoro-N-(trans-4-(2-hydroxypropan-2-yl)cyclohexyl)quinoline-3-carboxamide] the IC50 was 20 nM.
